Data: patent US20200352854A1, “DEVICES AND METHODS FOR PREVENTING AND INHIBITING PERIODONTAL DISEASE” (Fixed Focus LLC, priority 2019, published 2020)

Experiment: water solubility of complex carbohydrate agents
Type: physicochemical
Protocol: Specific solubilities are: dextran, 50 mg/ml; hydroxymethylcellulose, 10 mg/ml; cellulose, 0 mg/ml; oat beta glucan, 20 mg/ml.

solubility	Substance
10 mg/mL	hydroxymethylcellulose
20 mg/mL	oat beta glucan
